Measurements: ChEMBL document CHEMBL4619816, “GSK973 Is an Inhibitor of the Second Bromodomains (BD2s) of the Bromodomain and Extra-Terminal (BET) Family” (ACS Med Chem Lett, 2020)
Activity calls are given as the source filed them. The rule behind the calls is not given here.

Assays:
[1] = Clearance in Beagle dog at 1 mg/kg, iv; assay type: ADME, organism-based, Canis lupus familiaris; conditions: in vivo
[2] = target: Bromodomain-containing protein 8 (Homo sapiens) (UniProt Q9H0E9); assay: Inhibition of BRD8 bromodomain 2 (unknown origin) by BROMOscan assay
Bromodomain-containing protein 8 (Homo sapiens), sequence (Q9H0E9 whole entry, the tested form may be a part, canonical isoform): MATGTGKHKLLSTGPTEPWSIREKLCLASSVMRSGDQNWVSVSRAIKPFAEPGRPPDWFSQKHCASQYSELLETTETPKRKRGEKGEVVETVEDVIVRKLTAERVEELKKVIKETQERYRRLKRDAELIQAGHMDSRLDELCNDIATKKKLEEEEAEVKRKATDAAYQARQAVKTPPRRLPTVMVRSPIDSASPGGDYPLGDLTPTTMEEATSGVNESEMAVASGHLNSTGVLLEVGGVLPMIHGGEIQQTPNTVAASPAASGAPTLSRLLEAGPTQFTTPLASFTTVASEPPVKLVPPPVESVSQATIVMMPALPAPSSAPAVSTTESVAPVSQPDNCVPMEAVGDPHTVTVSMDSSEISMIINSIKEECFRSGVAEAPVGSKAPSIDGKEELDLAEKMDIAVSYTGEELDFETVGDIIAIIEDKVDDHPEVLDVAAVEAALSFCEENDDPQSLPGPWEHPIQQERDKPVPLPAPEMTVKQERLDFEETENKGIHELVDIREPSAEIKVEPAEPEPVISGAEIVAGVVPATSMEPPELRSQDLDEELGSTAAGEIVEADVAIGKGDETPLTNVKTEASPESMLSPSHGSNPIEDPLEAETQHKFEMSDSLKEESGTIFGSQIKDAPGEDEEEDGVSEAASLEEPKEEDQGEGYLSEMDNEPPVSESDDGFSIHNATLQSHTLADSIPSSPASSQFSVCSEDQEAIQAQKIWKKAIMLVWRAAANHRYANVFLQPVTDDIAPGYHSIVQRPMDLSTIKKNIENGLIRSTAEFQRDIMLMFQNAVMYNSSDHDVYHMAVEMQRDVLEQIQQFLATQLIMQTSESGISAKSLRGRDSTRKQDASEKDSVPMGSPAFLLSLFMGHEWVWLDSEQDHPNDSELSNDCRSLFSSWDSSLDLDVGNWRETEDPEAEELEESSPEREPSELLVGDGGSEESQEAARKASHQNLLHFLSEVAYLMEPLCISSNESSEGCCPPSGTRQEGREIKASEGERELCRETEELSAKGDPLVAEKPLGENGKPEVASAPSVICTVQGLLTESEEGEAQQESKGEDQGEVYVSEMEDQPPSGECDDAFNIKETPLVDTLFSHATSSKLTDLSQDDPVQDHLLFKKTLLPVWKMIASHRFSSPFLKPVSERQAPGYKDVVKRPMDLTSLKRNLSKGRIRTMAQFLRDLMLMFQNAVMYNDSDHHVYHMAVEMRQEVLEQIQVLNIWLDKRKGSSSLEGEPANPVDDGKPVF

[3] = target: Bromodomain testis-specific protein (Homo sapiens) (UniProt Q58F21); assay: Inhibition of human partial length BRDT bromodomain 2 (K250 to E382 residues) expressed in bacterial expression system by BROMOscan assay
[4] = target: Bromodomain adjacent to zinc finger domain protein 2B (Homo sapiens) (UniProt Q9UIF8); assay: Inhibition of human partial length BAZ2B (S2054 to S2168 residues) expressed in bacterial expression system by BROMOscan assay
[5] = target: Bromodomain testis-specific protein (Homo sapiens) (UniProt Q58F21); assay: Inhibition of BRDT bromodomain 1/2 (unknown origin) by BROMOscan assay
[6] = target: Transcription initiation factor TFIID subunit 1 (Homo sapiens) (UniProt P21675); assay: Inhibition of human partial length TAF1 bromodomain 2 (D1521 to D1656 residues) expressed in bacterial expression system by BROMOscan assay
[7] = Permeability of compound by artificial membrane assay; assay type: ADME; conditions: PAMPA; read-out: permeability
[8] = target: SWI/SNF-related matrix-associated actin-dependent regulator of chromatin subfamily A member 4 (Homo sapiens) (UniProt P51532); assay: Inhibition of human partial length SMARCA4 (A1448 to S1575 residues) expressed in bacterial expression system by BROMOscan assay
[9] = target: Bromodomain testis-specific protein (Homo sapiens) (UniProt Q58F21); assay: Inhibition of human partial length BRDT bromodomain 1 (N21 to E137 residues) expressed in bacterial expression system by BROMOscan assay
[10] = target: Peregrin (Homo sapiens) (UniProt P55201); assay: Inhibition of human partial length BRPF1 (E627 to G740 residues) expressed in bacterial expression system by BROMOscan assay
[11] = target: Bromodomain-containing protein 3 (Homo sapiens) (UniProt Q15059); assay: Inhibition of human partial length BRD3 bromodomain 1 (P24 to E144 residues) expressed in bacterial expression system by BROMOscan assay
Bromodomain-containing protein 3 (Homo sapiens), sequence (Q15059 2-726 limits assumed): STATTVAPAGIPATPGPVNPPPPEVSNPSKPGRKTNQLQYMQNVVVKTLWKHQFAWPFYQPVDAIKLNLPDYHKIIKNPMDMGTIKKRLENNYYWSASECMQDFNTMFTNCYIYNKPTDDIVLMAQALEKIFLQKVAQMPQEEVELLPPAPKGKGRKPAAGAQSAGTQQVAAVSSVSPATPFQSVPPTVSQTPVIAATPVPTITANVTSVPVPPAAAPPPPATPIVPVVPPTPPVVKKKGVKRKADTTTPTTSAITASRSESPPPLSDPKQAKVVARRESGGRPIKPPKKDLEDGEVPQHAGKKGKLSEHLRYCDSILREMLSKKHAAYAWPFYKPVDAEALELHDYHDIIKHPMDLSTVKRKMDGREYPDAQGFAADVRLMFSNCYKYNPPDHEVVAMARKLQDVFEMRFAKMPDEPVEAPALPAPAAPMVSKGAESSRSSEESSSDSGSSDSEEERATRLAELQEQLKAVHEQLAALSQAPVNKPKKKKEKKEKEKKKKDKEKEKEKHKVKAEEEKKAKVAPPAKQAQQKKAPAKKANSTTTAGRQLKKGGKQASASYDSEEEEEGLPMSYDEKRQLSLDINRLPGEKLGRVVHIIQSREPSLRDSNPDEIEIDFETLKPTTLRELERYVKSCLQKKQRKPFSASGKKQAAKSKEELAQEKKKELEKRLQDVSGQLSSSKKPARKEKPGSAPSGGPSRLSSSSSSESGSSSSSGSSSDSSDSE

[12] = target: Bromodomain-containing protein 2 (Homo sapiens) (UniProt P25440); assay: Inhibition of human partial length BRD2 bromodomain 1 long isoform (K71 to N194 residues) expressed in bacterial expression system by BROMOscan assay
Bromodomain-containing protein 2 (Homo sapiens), sequence (P25440 whole entry, looked up, the tested form may be a part, canonical isoform): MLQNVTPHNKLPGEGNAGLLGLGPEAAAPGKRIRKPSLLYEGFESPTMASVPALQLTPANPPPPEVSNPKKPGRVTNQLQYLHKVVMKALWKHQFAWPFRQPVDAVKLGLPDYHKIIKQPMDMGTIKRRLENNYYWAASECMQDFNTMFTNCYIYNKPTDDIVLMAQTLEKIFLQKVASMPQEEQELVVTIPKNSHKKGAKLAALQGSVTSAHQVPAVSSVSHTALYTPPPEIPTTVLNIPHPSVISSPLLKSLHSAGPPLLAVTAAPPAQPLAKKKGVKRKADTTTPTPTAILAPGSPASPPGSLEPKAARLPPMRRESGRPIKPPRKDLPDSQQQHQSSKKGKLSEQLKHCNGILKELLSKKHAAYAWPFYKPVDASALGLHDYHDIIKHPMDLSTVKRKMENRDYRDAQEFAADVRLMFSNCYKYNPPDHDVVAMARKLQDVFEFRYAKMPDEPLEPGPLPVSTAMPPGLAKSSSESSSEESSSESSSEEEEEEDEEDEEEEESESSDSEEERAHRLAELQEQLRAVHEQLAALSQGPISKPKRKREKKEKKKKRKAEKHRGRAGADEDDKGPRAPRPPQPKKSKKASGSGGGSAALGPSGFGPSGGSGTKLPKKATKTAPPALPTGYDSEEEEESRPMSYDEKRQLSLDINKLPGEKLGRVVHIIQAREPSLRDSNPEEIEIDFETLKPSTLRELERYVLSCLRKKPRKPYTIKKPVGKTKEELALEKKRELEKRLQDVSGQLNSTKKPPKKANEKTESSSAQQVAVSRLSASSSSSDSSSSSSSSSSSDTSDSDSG

[13] = target: Transcription intermediary factor 1-alpha (Homo sapiens) (UniProt O15164); assay: Inhibition of human partial length TRIM24 (P790 to P977 residues) expressed in bacterial expression system by BROMOscan assay
[14] = target: Bromodomain adjacent to zinc finger domain protein 2A (Homo sapiens) (UniProt Q9UIF9); assay: Inhibition of human partial length BAZ2A (M1792 to L1905 residues) expressed in bacterial expression system by BROMOscan assay
[15] = target: Transcription initiation factor TFIID subunit 1-like (Homo sapiens) (UniProt Q8IZX4); assay: Inhibition of human partial length TAF1L bromodomain 2 (Q1523 to D1654 residues) expressed in bacterial expression system by BROMOscan assay
[16] = target: Bromodomain-containing protein 2 (Homo sapiens) (UniProt P25440); assay: Inhibition of human partial length BRD2 bromodomain 2 isoform 1 (E348 to D455 residues) expressed in bacterial expression system by BROMOscan assay
[17] = Renal clearance in Wistar Han rat at 1 mg/kg administered as iv infusion for 1 hr and measured up to 24 hrs by LC-MS/MS analysis; assay type: ADME, organism-based; conditions: in vivo
[18] = target: Histone acetyltransferase p300 (Homo sapiens) (UniProt Q09472); assay: Inhibition of human partial length EP300 (A1040 to G1161 residues) expressed in bacterial expression system by BROMOscan assay
[19] = Clearance in Beagle dog hepatocytes assessed as per gram tissue at 0.5 uM by LC-MS/MS analysis; assay type: ADME, cell-based, Canis lupus familiaris, Hepatocyte
[20] = target: Protein polybromo-1 (Homo sapiens) (UniProt Q86U86); assay: Inhibition of human partial length PBRM1 bromodomain 5 (S645 to D766 residues) expressed in bacterial expression system by BROMOscan assay
Protein polybromo-1 (Homo sapiens), sequence (Q86U86 whole entry, the tested form may be a part): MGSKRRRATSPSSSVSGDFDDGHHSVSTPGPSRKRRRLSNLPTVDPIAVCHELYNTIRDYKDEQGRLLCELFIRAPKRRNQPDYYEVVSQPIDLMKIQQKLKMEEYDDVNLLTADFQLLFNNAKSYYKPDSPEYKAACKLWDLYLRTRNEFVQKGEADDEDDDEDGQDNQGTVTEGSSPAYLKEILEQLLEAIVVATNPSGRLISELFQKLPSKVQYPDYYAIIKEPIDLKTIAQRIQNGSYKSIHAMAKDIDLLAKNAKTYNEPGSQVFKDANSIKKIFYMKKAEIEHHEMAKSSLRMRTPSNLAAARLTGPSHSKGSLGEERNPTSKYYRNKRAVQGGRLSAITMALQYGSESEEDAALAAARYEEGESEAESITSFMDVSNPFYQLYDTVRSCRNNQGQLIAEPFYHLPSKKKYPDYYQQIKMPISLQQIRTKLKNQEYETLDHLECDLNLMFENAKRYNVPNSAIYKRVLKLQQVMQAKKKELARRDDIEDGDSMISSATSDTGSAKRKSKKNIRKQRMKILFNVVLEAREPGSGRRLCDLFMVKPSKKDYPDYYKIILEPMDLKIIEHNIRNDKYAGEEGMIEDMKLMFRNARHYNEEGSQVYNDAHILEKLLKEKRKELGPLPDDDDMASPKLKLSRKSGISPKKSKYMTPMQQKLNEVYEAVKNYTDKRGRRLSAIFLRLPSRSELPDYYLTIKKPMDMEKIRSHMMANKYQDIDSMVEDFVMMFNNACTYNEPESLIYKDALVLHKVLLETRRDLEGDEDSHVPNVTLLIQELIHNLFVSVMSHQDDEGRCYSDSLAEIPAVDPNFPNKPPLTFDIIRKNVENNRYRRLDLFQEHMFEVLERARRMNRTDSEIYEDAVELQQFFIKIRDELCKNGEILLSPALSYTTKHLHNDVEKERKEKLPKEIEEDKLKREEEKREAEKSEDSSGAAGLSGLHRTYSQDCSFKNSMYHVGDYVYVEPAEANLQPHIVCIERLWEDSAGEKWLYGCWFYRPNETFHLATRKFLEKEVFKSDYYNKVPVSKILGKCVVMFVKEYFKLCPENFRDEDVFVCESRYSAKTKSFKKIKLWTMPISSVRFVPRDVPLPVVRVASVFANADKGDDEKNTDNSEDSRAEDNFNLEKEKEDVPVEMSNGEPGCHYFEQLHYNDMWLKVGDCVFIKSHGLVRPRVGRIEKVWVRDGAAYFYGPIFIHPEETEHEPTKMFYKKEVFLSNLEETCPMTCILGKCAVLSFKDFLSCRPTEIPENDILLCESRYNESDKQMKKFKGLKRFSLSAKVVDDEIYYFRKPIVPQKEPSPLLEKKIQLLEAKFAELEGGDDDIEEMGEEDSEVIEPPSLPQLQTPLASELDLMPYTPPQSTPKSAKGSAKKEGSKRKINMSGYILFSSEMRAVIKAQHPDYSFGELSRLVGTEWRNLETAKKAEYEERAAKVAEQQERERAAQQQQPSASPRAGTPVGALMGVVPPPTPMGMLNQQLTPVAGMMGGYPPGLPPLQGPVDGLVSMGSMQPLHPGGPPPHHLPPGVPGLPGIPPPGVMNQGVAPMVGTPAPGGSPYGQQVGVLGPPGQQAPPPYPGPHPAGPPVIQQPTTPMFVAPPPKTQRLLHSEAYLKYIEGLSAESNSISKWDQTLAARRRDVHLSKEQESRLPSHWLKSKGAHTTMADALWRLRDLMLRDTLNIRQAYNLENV

[21] = target: Bromodomain-containing protein 9 (Homo sapiens) (UniProt Q9H8M2); assay: Inhibition of human partial length BRD9 (R130 to V259 residues) expressed in bacterial expression system by BROMOscan assay
Bromodomain-containing protein 9 (Homo sapiens), sequence (Q9H8M2 whole entry, the tested form may be a part): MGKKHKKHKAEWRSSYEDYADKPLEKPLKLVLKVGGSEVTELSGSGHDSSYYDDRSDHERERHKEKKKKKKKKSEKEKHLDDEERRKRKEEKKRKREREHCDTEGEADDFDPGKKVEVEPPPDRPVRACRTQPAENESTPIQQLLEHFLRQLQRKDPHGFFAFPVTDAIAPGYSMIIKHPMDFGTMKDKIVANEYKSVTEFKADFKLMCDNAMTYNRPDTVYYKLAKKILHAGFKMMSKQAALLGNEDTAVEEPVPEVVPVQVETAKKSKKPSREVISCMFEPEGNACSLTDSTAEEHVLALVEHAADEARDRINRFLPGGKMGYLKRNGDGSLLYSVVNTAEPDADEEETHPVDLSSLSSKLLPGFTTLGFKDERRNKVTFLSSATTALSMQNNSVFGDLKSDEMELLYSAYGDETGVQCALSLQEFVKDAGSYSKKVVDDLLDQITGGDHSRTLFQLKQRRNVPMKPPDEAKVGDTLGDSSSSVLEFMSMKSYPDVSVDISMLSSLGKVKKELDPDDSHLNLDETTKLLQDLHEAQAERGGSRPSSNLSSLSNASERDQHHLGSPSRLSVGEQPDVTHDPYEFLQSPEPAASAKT

[22] = Oral bioavailability in Wistar Han rat at 3 mg/kg measured up to 24 hrs by LC-MS/MS analysis; assay type: ADME, organism-based; conditions: in vivo
[23] = Clearance in Wistar Han rat at 1 mg/kg administered as iv infusion for 1 hr and measured up to 24 hrs by LC-MS/MS analysis; assay type: ADME, organism-based; conditions: in vivo
[24] = target: Bromodomain-containing protein 3 (Homo sapiens) (UniProt Q15059); assay: Inhibition of human partial length BRD3 bromodomain 2 (G306 to P416 residues) expressed in bacterial expression system by BROMOscan assay
[25] = target: Protein polybromo-1 (Homo sapiens) (UniProt Q86U86); assay: Inhibition of human partial length PBRM1 bromodomain 1 (S178 to E291 residues) expressed in bacterial expression system by BROMOscan assay
[26] = Half life in Beagle dog at 1 mg/kg, iv; assay type: ADME, organism-based, Canis lupus familiaris; conditions: in vivo
[27] = target: ATPase family AAA domain-containing protein 2B (Homo sapiens) (UniProt Q9ULI0); assay: Inhibition of human partial length ATAD2B (Q955 to R1082 residues) expressed in bacterial expression system by BROMOscan assay
[28] = target: ATPase family AAA domain-containing protein 2 (Homo sapiens) (UniProt Q6PL18); assay: Inhibition of human partial length ATAD2A (Q981 to R1108 residues) expressed in bacterial expression system by BROMOscan assay
[29] = Renal clearance in Beagle dog at 1 mg/kg, iv; assay type: ADME, organism-based, Canis lupus familiaris; conditions: in vivo
[30] = Clearance in Wistar Han rat hepatocytes assessed as per gram tissue at 0.5 uM measured up to 1 hr by LC-MS/MS analysis; assay type: ADME, cell-based, Hepatocyte
[31] = target: SWI/SNF-related matrix-associated actin-dependent regulator of chromatin subfamily A member 2 (Homo sapiens) (UniProt P51531); assay: Inhibition of human partial length SMARCA2 (S1377 to Q1486 residues) expressed in bacterial expression system by BROMOscan assay
[32] = target: CREB-binding protein (Homo sapiens) (UniProt Q92793); assay: Inhibition of human partial length CREBBP (R1081 to G1197 residues) expressed in bacterial expression system by BROMOscan assay
[33] = target: Bromodomain and WD repeat-containing protein 1 (Homo sapiens) (UniProt Q9NSI6); assay: Inhibition of human partial length WDR9 bromodomain 2 (A1310 to E1430 residues) expressed in bacterial expression system by BROMOscan assay
[34] = target: Bromodomain-containing protein 8 (Homo sapiens) (UniProt Q9H0E9); assay: Inhibition of BRD8 bromodomain 1 (unknown origin) by BROMOscan assay
[35] = target: Bromodomain-containing protein 2 (Homo sapiens) (UniProt P25440); assay: Inhibition of human partial length BRD2 bromodomain 1/2 isoform 1 (K71 to D455 residues) by BROMOscan assay
[36] = tested on: Blood; assay: Inhibition of LPS-induced MCP1 production in human whole blood preincubated for 30 mins followed by LPS addition measured after 24 hrs by immuno assay; assay type: functional, tissue-based
[37] = target: Bromodomain-containing protein 7 (Homo sapiens) (UniProt Q9NPI1); assay: Inhibition of human partial length BRD7 (L125 to R254 residues) expressed in mammalian expression system by BROMOscan assay

With `CNC(=O)c1cc(C(=O)N[C@@H]2[C@@H]3COC[C@@H]32)cc2c1O[C@H](CF)[C@H]2c1ccccc1` the clearance [1] was 3 mL/min/kg, the inhibition [2] was “inactive” and the inhibition [3] was “inactive”. The inhibition [4] was “inactive”, the inhibition [5] was “inactive” and the inhibition [6] was “inactive”. For the same compound, the Papp [7] was 16.5 ×10⁻⁶ cm/s, the inhibition [8] was “inactive” and the inhibition [9] was “inactive”. For the same compound, the inhibition [10] was “inactive”, the inhibition [11] was “inactive” and the inhibition [12] was “inactive”. The inhibition [13] was “inactive”, the inhibition [14] was “inactive” and the inhibition [15] was “inactive”. For the same compound, the inhibition [16] was “inactive”, the CL renal [17] was 4 mL/min/kg and the inhibition [18] was “inactive”. For the same compound, the CLH [19] was under 0.65 mL/min/g, the inhibition [20] was “inactive” and the inhibition [21] was “inactive”. For the same compound, the bioavailability [22] was 48%, the clearance [23] was 73 mL/min/kg and the inhibition [24] was “inactive”. For the same compound, the inhibition [25] was “inactive”, the half-life [26] was 4.8 h and the inhibition [27] was “inactive”. The inhibition [28] was “inactive”, the CL renal [29] was 0.3 mL/min/kg and the CLH [30] was 1.76 mL/min/g. The inhibition [31] was “inactive”, the inhibition [32] was “inactive” and the inhibition [33] was “inactive”. The inhibition [34] was “inactive”, the inhibition [35] was “inactive” and the IC50 [36] was 50.1 nM. For the same compound, the inhibition [37] was “inactive”.
